Measurements from patent US5359121A, “Glycine derivative monosodium salt tetrahydrate” (Ono Pharmaceutical Co., Ltd., priority 1991, dated 1994).

Legend:
[1] = Experiment of hygroscopicity; assay type: physicochemical; details: exposure to air / 25° C., humidity of 75%
Procedure: The hygroscopicity of each compound was measured by the ratio of its weight to lapse of time.

[2] = Toxicity

CC(C)(C)C(=O)Oc1ccc(S(=O)(=O)Nc2ccccc2C(=O)NCC(=O)[O-])cc1.O.O.O.O.[Na+] [the present invention compound, N-[o-(p-pivaloyloxybenzenesulfonylamino)benzoyl]glycine monosodium salt tetrahydrate]
hygroscopicity (result in words) [1]: no change of its weight | toxicity [2]: very low

CC(C)(C)C(=O)Oc1ccc(S(=O)(=O)Nc2ccccc2C(=O)NCC(=O)[O-])cc1.[Na+] [the comparison compound, N-[o-(p-pivaloyloxybenzenesulfonylamino)benzoyl]glycine monosodium salt]
hygroscopicity (result in words) ([1]; listed as the monosodium salt of the compound of the formula (II), monosodium salt): hygroscopic | hygroscopicity (result in words) ([1]; monosodium salt): increased its weight with lapse of time
